The structures appear in SMILES notation. Active and inactive are the calls of the source.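 Rule for the calls: active = mean EC50 of 20 µM or lower; inactive = the rest.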

In the assay the target is CHO-CHOP luciferase reporter, UPR apoptotic arm activation. Description: CHOP luciferase reporter activation – CHO-CHOP cells, luminescence, counter-screen for UPR adaptive arm activator project, SAR follow-up (AID 540306). A general note: Reporter assays use an easily measured gene product as a stand-in for the process of interest.
As to `COc1cc(-c2ccccc2)nc(Nc2nc(C)c3ccccc3n2)n1`, the EC50 (usually the midpoint of the concentration-response curve) was > 80 µM (inactive).

In the case of `Cc1ccnc(Nc2nc(-c3ccccc3)cc(=O)[nH]2)n1`, the EC50 was > 80 µM (inactive).

In the case of `Cc1ccnc(Nc2ncccn2)n1`, the EC50 was > 80 µM (inactive).

`Cc1cc(-c2ccccc2)nc(Nc2nc(C)c3ccccc3n2)n1`: the EC50 was > 80 µM (inactive).

For the molecule `Cc1nc(Nc2nc(-c3ccccc3)cc(=O)[nH]2)nc2ccccc12`, the EC50 was > 80 µM (inactive).

For `Cc1nc(Nc2ncccn2)nc2ccccc12`, the EC50 was > 80 µM (inactive).

On to `Cc1nc(Nc2nccc(-c3ccccc3)n2)nc2ccccc12`, for which the EC50 result was “inactive”.

For `Cc1cc(=O)[nH]c(Nc2nc(C)c3ccccc3n2)n1`, the EC50 is > 80 µM (inactive).

(Values after PubChem BioAssay AID540306 (Sanford-Burnham Center for Chemical Genomics, 2011).)
